This note sets out measurements from patent publication US10912816B2, “Obesity-related genes and their proteins and uses thereof” (THE TRUSTEES OF COLUMBIA UNIVERSITY IN THE CITY OF NEW YORK, priority 2010, dated 2021).

“Also recorded” adds a separate entry of the source.

Data set [1] in a line: Body weight and 24 hour feeding behavior in DIO rats (BioDaq Food Intake Monitoring System). The class given is in vivo. The settings on record: DIO rats on treatment. As for the experimental part:
Obese adult female Wistar rats (n=4/group) received single daily injections (sc) of vehicle or Spexin (35 μg/kg BW). Body weights and food intake were measured daily. Average daily food intake (FIG. 22A) and body weight (FIG. 22B) for each group was recorded for each 24 hr period. 24 hr food intake was reduced in the Spexin treated animals (dark circles) by Day 3. […] This effect persisted well beyond the immediate treatment period, and was apparent out to Day 7.
A more detailed analysis of hourly feeding behaviors, including 1) number of “meals” during a 24 hr light/dark cycle, and 2) meal duration and incidence were continuously recorded by a BioDaq Food Intake Monitoring System (FIG. 23). Pre-treatment baselines (FIG. 23A), on-treatment responses (FIG. 23B), early (FIG. 23C) and late (FIG. 23D) “wash-out” periods are presented. […]
Obese (DIO) adult female Wistar rats (n=4/group) received single daily injections (sc) of vehicle or Spexin (35 μg/kg BW). Individual body weights and food intake were measured and recorded daily, and the average food intake and body weight for each group was recorded for each 24 hour period. For a more detailed analysis of hourly feeding behaviors, number of feeding events or “meals” during a 24 hour light/dark cycle, and frequency and durations of individual meals were continuously recorded via a BioDaq Food Intake Monitoring System (New Brunswick, N.J.).

Data set [2] is described as follows: Conditioned taste aversion testing. To be noted: ip injection on test days 1-3; spexin 70 μg/kg, LiCl 63.5 mg/kg body weight (FIG. 29). Type of data set: in vivo, adult female Wistar rats. Here is the method: After 20 hrs of water deprivation, rats were offered a single bottle containing 0.1% sodium saccharin for 20 min, followed by an ip injection of physiological saline (n=6), 70 μg spexin/kg body weight (n=6), or 63.5 mg LiCl/kg body weight (0.15M LiCl) (n=5) after an additional 20 min. Injections were administered on test days 1-3, with no injection on the final test day. […] Data points represent mean±SEM.
Conditioned taste aversion studies were conducted using adult female Wistar rats according to established protocols [P27-P29]. For training, rats were water but not food deprived for 20 hrs (1800-1400 hrs the following day), then offered a single bottle of water ad libitum for 20 min. Training sessions took place on 2 days of each week, spaced at 3-4 day intervals, to allow recovery of normal food intake and body weight. A total of 7 training sessions were conducted, by which time all animals had learned to drink promptly when fluid was offered. Testing was initiated on the same schedule, with 0.1% sodium saccharin rather than water as the available liquid. On test days 1-3 groups of rats were injected ip with either physiological saline, spexin (70 μg/kg body weight), or LiCl (63.5 mg/kg body weight). All groups experienced their first saccharin exposure and injection on test day 1. […]

Consider `CSCC[C@H](NC(=O)[C@H](C)NC(=O)[C@H](CCC(N)=O)NC(=O)[C@@H]1CCCN1C(=O)[C@@H](NC(=O)[C@H](Cc1c[nH]c2ccccc12)NC(=O)[C@@H](N)CC(N)=O)[C@@H](C)O)C(=O)N[C@@H](CC(C)C)C(=O)N[C@@H](Cc1ccc(O)cc1)C(=O)N[C@@H](CC(C)C)C(=O)N[C@@H](CCCCN)C(=O)NCC(=O)N[C@@H](C)C(=O)N[C@@H](CCC(N)=O)C(N)=O` [Spexin, NWTPQAMLYLKGAQ-amide], for which the “toxicity, nausea or taste aversion behaviors” value in data set [1] was “No indications of nausea or taste aversion behaviors; also recorded: No overt signs of Spexin-induced toxic effects”; in data set [1] (listed as spexin), “did not exhibit overt toxicity or nausea”. Also, in data set [2], the “total amount of 0.1% saccharin solution consumed vs saline” value is “No significant differences; also recorded: no signs of taste aversion were detected”.

With `[Cl-].[Li+]` [LiCl, reference compound], the “total amount of 0.1% saccharin solution consumed vs saline” value in data set [2] was “significantly less”.
